# Assays:
# DU145 cells [1] = assay: FACS sub-G1 DNA analysis (apoptosis) in DU145 cells; assay type: cell-based, human; settings: for apoptosis (sub-G1) with other epigenetic compounds / apoptotic effect (sub-G1): in combination with IFN-γ; for apoptosis (sub-G1) with other epigenetic compounds: compared with DZNep; for apoptotic effect (sub-G1): treated for either 3 days or 10 days
# Method: For the assessment of cell death, cells were harvested in 70% ethanol. Fixed cells were stained with Propidium Iodide (P.I) (50 μg/mL). The stained cells were analyzed for DNA content by FACS in a FACSCalibur (Becton Dickinson Instrument). % of cell death was defined as the sub-G1 population quantified using the CellQuest software (Becton Dickinson). The percentage of dead cells or sub-G1 cells was calculated by comparing the results of each experiment to the results from DMSO-treated cells. Each assay was repeated a minimum of three times, with results reported as means+s.e.m.
# [2] = tested on: IFNGR1 expression and IFN-γ-STAT1 signaling; assay: qRT-PCR and western blot of IFNGR1 expression and IFN-γ signaling in DU145 cells; assay type: cell-based, human
# Method: All cells were maintained at 37° C. with 5% CO2. Cells were grown until they were 80% confluent before they are treated the respective drugs. For drug treatment, DZNep and GSK126 were purchased from Pharmaron Inc. (Beijing, China), GSK343 was kindly provided by Chemical Probes of University of Toronto, 5′Aza, TSA and human recombinant IFN-γ was purchased from Sigma. For rescue experiment using IFNGR1 blocking antibody, the neutralizing antibody that specifically targets IFNGR1 (anti-CD119, GIR-208, BD Pharmingen) was added to the medium 4 hour prior to the addition of DZNep or/and IFN-γ. Total RNA was isolated by using Trizol (Invitrogen) and purified with the RNeasy Mini Kit (Qiagen). The microarray hybridization was performed using the Illumina Gene Expression Sentrix BeadChip HumanRef-8_V3, and data analysis was performed by GeneSpring software from Agilent Technologies as described previously. The analyzed gene sets by GeneSpring were next subjected to Ingenuity Pathway Analysis (IPA) for gene ontology (GO) analysis. Reverse transcription and quantitative PCR assays were performed using High Capacity cDNA Archive kit and KAPA SyBr Fast qPCR kit (KAPA biosystems). For quantification of mRNA levels, 18S level was used as an internal control. All reactions were analyzed in an Applied Biosystems PRISM 7500 Fast Real-Time PCR system in 96-well plate format. Western Blotting was performed as described previously. Briefly, Cells were scraped, collected, and lysed in RIPA buffer. To release histones from chromatin, cell lysates were further sonicated for 15 sec using a XL2000 Microson Ultrasonic Processor (Misonix). Equal amounts of protein (30 μg) were separated on SDS-polyacrylamide gels and transferred to PVDF membranes. The blots were probed with antibodies against EED (07-368), SUZ12 (07-379), trimethylated H3-K27 (07-449), Acetyl-Histone H3 (06-599), which were purchased from Upstate Biotechnology. IFNGR1 (GIR-94) and anti-IFI16 (1G7) were purchased from Santa Cruz. EZH2 phospho S21 (00388) was purchased from Bethyl Laboratories. EZH2 (AC22), P110α PI3K, p-AKT (T308), p-AKT (S473), pSTAT1Y701, total STAT1, Histone H3 (3H1), Beclin-1 and cleaved PARP were purchased from Cell Signaling. Myc and Actin were purchased from Roche Applied Science and Sigma-Aldrich, respectively.
# EZH2/PRC2 and H3K27me3 = biological target: T1, EZH2/PRC2 and H3K27me3 (Homo sapiens, UniProt Q15910); assay: Western blot of PRC2 proteins and H3K27me3 in DU145 cells; assay type: cell-based
# T1 construct: endogenous in cells; host or cells: DU145 (named by the earlier reading of the assay)
# T1 sequence (Q15910 whole entry): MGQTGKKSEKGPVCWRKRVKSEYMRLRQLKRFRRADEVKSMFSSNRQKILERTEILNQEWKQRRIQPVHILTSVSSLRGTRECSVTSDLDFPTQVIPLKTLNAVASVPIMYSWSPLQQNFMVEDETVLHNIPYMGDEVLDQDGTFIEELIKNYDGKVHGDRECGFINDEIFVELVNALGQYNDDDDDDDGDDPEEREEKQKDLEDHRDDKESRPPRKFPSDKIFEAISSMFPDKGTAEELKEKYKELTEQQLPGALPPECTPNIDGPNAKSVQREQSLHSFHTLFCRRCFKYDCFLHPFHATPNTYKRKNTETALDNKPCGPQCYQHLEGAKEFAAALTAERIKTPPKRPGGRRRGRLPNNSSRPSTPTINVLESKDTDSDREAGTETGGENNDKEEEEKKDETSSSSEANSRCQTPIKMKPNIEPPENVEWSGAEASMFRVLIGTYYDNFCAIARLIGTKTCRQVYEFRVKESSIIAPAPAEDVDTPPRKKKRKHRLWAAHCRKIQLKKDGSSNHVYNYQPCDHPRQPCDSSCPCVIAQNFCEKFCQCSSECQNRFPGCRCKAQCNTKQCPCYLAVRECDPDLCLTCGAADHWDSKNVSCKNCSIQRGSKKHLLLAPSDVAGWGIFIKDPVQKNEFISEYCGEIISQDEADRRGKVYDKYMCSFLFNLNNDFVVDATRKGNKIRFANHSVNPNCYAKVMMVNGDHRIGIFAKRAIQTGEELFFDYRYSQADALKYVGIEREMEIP
# T1 sequence (O75530 whole entry partner): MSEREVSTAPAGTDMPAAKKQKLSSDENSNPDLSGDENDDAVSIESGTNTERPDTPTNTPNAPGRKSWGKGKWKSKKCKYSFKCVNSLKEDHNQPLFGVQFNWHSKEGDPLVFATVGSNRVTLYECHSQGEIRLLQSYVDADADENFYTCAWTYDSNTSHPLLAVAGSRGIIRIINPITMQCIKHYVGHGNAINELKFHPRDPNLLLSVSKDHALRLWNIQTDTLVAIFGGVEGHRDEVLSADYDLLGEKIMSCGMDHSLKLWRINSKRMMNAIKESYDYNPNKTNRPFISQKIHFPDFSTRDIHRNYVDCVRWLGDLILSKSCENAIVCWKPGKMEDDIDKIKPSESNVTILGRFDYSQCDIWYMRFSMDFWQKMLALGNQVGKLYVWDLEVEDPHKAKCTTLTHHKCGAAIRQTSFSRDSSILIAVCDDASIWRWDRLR
# T1 sequence (Q15022 whole entry partner): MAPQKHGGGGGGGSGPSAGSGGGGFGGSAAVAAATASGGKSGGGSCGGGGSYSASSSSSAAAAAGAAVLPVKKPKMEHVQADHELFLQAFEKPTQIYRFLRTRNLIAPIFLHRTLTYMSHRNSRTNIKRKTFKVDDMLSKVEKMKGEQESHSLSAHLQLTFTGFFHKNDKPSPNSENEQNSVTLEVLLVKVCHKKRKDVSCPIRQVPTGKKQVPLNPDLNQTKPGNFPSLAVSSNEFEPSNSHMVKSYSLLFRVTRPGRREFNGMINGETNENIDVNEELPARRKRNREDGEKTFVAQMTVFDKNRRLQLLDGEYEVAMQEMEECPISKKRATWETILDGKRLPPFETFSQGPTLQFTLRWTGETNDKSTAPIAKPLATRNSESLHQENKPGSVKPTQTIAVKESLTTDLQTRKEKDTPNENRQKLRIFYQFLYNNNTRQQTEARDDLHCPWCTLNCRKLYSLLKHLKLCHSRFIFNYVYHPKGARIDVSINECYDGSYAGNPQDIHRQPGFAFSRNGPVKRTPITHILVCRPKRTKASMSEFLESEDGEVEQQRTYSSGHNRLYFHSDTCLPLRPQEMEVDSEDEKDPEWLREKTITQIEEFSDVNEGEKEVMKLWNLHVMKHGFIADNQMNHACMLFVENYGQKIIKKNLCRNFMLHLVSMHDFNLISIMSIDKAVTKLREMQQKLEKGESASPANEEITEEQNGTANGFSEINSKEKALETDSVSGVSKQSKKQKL
# Method: Western Blotting was performed as described previously. Briefly, Cells were scraped, collected, and lysed in RIPA buffer. To release histones from chromatin, cell lysates were further sonicated for 15 sec using a XL2000 Microson Ultrasonic Processor (Misonix). Equal amounts of protein (30 μg) were separated on SDS-polyacrylamide gels and transferred to PVDF membranes. The blots were probed with antibodies against EED (07-368), SUZ12 (07-379), trimethylated H3-K27 (07-449), Acetyl-Histone H3 (06-599), which were purchased from Upstate Biotechnology. IFNGR1 (GIR-94) and anti-IFI16 (1G7) were purchased from Santa Cruz. EZH2 phospho S21 (00388) was purchased from Bethyl Laboratories. EZH2 (AC22), P110α PI3K, p-AKT (T308), p-AKT (S473), pSTAT1Y701, total STAT1, Histone H3 (3H1), Beclin-1 and cleaved PARP were purchased from Cell Signaling. Myc and Actin were purchased from Roche Applied Science and Sigma-Aldrich, respectively.
# DU145 cells [3] = assay: Cell proliferation assay (CellTiter-Glo) in DU145 cells; assay type: cell-based, human; settings: siRNA knockdown combined with IFN-γ treatment
# Method: (§1) The optimal cell seeding was determined empirically for all cell lines by examining the growth of a wide range of seeding densities in a 96-well format to identify conditions that permitted proliferation for 6 days. Cells were then plated at the optimal seeding density 24 h before siRNA or drug treatment in triplicate. Plates were incubated for 6 days at 37° C. in 5% CO2. Cells were then lysed with CellTiter-Glo (CTG) (Promega) and chemiluminescent signal was detected with a microplate reader (TECAN). In addition, an untreated plate of cells was harvested at the time of drug or siRNA addition (T0) to quantify the starting number of cells. CTG values obtained after the 6 day treatment were expressed as percentages of the T0 value and plotted against time of treatment. Cells received 1-5 μM of DZNep, 25 ng/mL of IFN-γ and 0.1-2.5 μM of GSK343 unless stated otherwise for 72-96 h.
# LNCaP cells = assay: Cell proliferation assay (CellTiter-Glo) in LNCaP cells; assay type: cell-based, human; settings: siRNA knockdown combined with IFN-γ treatment
# Method: as §1
# IFNGR1 promoter = assay: ChIP analysis of EZH2 and H3K27me3 enrichments at IFNGR1 in DU145 cells; assay type: cell-based, human; settings: GSK126 (5 μM), 3 days, compared with DZNep
# Method: ChIP assays were performed as described previously. […] The immunoprecipitated DNA was quantified by quantitative real-time PCR using KAPA SyBr Fast qPCR kit (KAPA biosystems) with the specific ChIP primers as listed in the Table 4. Quantification of binding to the promoter was defined as the percentage of the whole cell lysate input DNA. The fold enrichment was derived by normalizing the specific antibody enriched against the IgG-enriched chromatin. CNR1 serves a positive control and Actin is a negative control. Significance of target genes was assessed relative to Actin level.
# solid tumor cells = settings: very recent report; cited from earlier work
# DU145 xenograft tumor = DU145 xenograft tumor growth in male athymic nude mice; assay type: in vivo; settings: IFN-γ 1×10^7 IU/kg i.p. daily, DZNep 1 mg/kg s.c. every alternating day, 38 days
# Method: For in vivo evaluation of DZNep and IFN-γ treatment, the experiments were conducted in compliance with animal protocol approved by the ASTAR-Biopolis Institutional Animal Care and Use Committee (IACUC) of Singapore. DU145 cells were subcutaneously injected into 6-8 week male nude mice at 5×10^6 cells, followed by treatment with vehicle, IFN-γ (1×10^7 IU/kg) alone, DZNep (1 mg/kg) alone or combined DZNep (1 mg/kg) with IFN-γ (1×10^7IU/kg). IFN-γ was administered by intraperitoneal injection daily and DZNep by subcutaneous injection on every alternating day over a duration of 38 days after average tumor size reached around 150 mm^3. Tumors were measured by vernier calliper at least twice per week and tumors volume was calculated with formula: V=W*W*L/2. Each xenograft treatment arm comprised of 5-8 mice. Differences among groups and treatments were determined by ANOVA followed by t tests. (***p<0.001, n.s=not significant) Error bars represent means±s.e.m
molecule,measurement,setting,value
O=C(CCCCCCC(=O)Nc1ccccc1)NO [SAHA],apoptosis (sub-G1) with other epigenetic compounds,DU145 cells [1],did not give rise to such a response
"CCCc1cc(C)[nH]c(=O)c1CNC(=O)c1cc(-c2ccnc(N3CCN(C)CC3)c2)cc2c1cnn2C(C)C [GSK343, N-[(6-methyl-2-oxo-4-propyl-1,2-dihydropyridin-3-yl)methyl]-6-[2-(4-methylpiperazin-1-yl)pyridin-4-yl]-1-(propan-2-yl)-1H-indazole-4-carboxamide]",IFNGR1 expression,[2]; GSK343 up to 2.5 μM for 3 days,did not show an induction of IFNGR1
same,depletion of H3K27me3,"EZH2/PRC2 and H3K27me3; GSK343 at as low as 0.1 μM, 3 days",efficient depletion of H3K27me3
same,apoptotic effect (sub-G1),DU145 cells [1],failed to see an apoptotic effect
CC(/C=C/C(=O)NO)=C\[C@@H](C)C(=O)c1ccc(N(C)C)cc1 [TSA],apoptosis (sub-G1) with other epigenetic compounds,DU145 cells [1],did not give rise to such a response
MYC knockdown: MYC siRNA: 5′-UCCUGAGACAGAUCAGCAACAACCG-3′ (SEQ ID NO:2) (other strand not given here),EZH2 expression after knockdown,EZH2/PRC2 and H3K27me3,decreased EZH2 expression
same,apoptosis (sub-G1) after knockdown,DU145 cells [1]; siRNA knockdown in combination with IFN-γ,apoptosis induction
same,cell growth after knockdown,DU145 cells [3],remarkable synergy in cell growth regression
same,cell growth after knockdown,LNCaP cells,no such an effect was seen
"CC[C@H](C)n1cc(C)c2c(C(=O)NCc3c(C)cc(C)[nH]c3=O)cc(-c3ccc(N4CCNCC4)nc3)cc21 [GSK126, N-[(4,6-dimethyl-2-oxo-1,2-dihydro-3-pyridinyl)methyl]-3-methyl-1-((1S)-1-methylpropyl)-6-[6-(1-piperazinyl)-3-pyridinyl]-1H-indole-4-carboxamide]",IFNGR1 expression,[2]; GSK126 up to 10 μM for 10 days,modest induction of IFNGR1
same,H3K27me3 enrichment at the IFNGR1 gene promoter,IFNGR1 promoter,more efficiently depleted H3K27me3
same,apoptotic effect (sub-G1),DU145 cells [1],failed to see an apoptotic effect
same,ability to induce the loss of cell viability,solid tumor cells,unable to do so
IFN-γ: human recombinant IFN-γ purchased from Sigma; enhancer of interferon-gamma receptor activity (protein) QDPYVKEAENLKKYFNAGHSDVADNGTLFLGILKNWKEESDRKIMQSQIVSFYFKLFKNFKDDQSIQKSVETIKEDMNVKFFNSNKKKRDDFEKLTNYSVTDLNVQRKAIHELIQVMAELSPAAKTGKRKRSQMLFRGRRASQ,xenograft tumor growth,DU145 xenograft tumor,slowed down the tumor growth

# Source: US9889180B2, “Method of treating cancer” (Agency for Science, Technology and Research, priority 2012, dated 2018)
